Data from patent publication US20260166159A1, “KRAS G12D DEGRADATION AGENT, AND PREPARATION METHOD AND USE THEREFOR” (LEADINGTAC PHARMACEUTICAL (SHAOXING) CO., LTD., priority 2022, published 2026).

What was measured:
[1] = target: T1, Human KRAS G12D 6His-tagged (Homo sapiens, UniProt P01116, G12D); assay: KRAS-G12D/GTP binding assay (HTRF); details: class symbols
T1 construct: purchased PerkinElmer
Procedure, shortened: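 Compounds at 0.02-5000 nM final (0.5% DMSO) were tested for blocking GTP Red tracer binding to His-tagged KRAS G12D, detected by Eu-cryptate anti-His antibody after 1 h, 25° C. Inhibition taken from 665/620 nm ratio relative to control, then fitted to give IC50.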

phosphorylated ERK = assay: KRAS G12D-mediated phosphorylated ERK inhibition assay (AlphaLISA), A427; assay type: cell-based; details: Homo sapiens, A-427; A427 cells; class symbols; read-out: pERK (A427) IC50
Experimental: The relative amounts of phosphorylated ERK and total ERK in the samples were separately determined according to the test methods provided in the instructions of the AlphaLISA SureFire Ultra p-ERK 1/2 (Thr202/Tyr204) kit (PerkinElmer) and the AlphaLISA SureFire Ultra TotalERK 1/2 kit (PerkinElmer).
The experimental procedures for the assay of the phosphorylated ERK and total ERK were as follows: 10 μL of each sample was added to a 384-well plate (Greiner), and 5 μL of the prepared Acceptor Beads (PerkinElmer) mixed solution (containing 50× Acceptor Beads 615, Activation Buffer, and equal volumes of Reaction Buffer 1 and Reaction Buffer 2) was added to each well; and the plate was incubated at room temperature for 2 h. Then 5 μL of 1× Donor Beads (PerkinElmer) diluted with Dilution Buffer was added to each well, and the plate was incubated at room temperature overnight. After the incubation was completed, AlphaLISA signal values for the phosphorylated ERK and total ERK were separately measured on an EnVision microplate reader (PerkinElmer) in the AlphaScreen standard mode. The following formula was adopted: phosphorylated ERK correction value=phosphorylated ERK AlphaLISA signal value/total ERK AlphaLISA signal value. The relative ratio of the phosphorylated ERK for each sample was calculated. The percentage inhibition rates of the compounds on the phosphorylated ERK at each concentration were calculated by comparing the relative value of the phosphorylated ERK with that of the DMSO control well. Then non-linear curve fittings for logarithmic concentration-inhibition rate were performed by the GraphPad Prism 8 analysis software, and the IC50 values of the compounds on the inhibition of the phosphorylated ERK were obtained (Table 2).

T1 sequence (P01116 1-188 isoform P01116-2 G12D): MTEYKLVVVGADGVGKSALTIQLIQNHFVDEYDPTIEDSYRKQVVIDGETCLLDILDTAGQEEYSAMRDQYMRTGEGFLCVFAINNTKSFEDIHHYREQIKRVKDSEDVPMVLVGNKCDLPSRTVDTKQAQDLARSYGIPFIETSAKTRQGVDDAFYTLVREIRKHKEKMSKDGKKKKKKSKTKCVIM

SMILES | IC50 [1] | IC50 (phosphorylated ERK)
Cc1ccc2[nH]ncc2c1-c1ncc2c(N3CC4CCC(C3)N4)nc(OCC3(CN4CCN(CC5CCC6(CC5)CCN(C(=O)c5ccc(Cl)c(N7CCC(=O)NC7=O)c5)CC6)CC4)CC3)nc2c1F [Example 16, 1-(5-(9-((4-((1-(((4-(3,8-diazabicyclo[3.2.1]octan-3-yl)-8-fluoro-7-(5-methyl-1H-indazol-4-yl)pyrido[4,3-d]pyrimidin-2-yl)oxy)methyl)cyclopropyl)methyl)piperazin-1-yl)methyl)-3-azaspiro[5.5]undecane-3-carbonyl)-2-chlorophenyl)dihydropyrimidine-2,4(1H,3H)-dione] | 1000 to 10000 nM | 1000 to 10000 nM
C#Cc1c(F)ccc2cc(O)cc(-c3ncc4c(N5CC6CCC(C5)N6)nc(OCC5(CN6CCN(CC7CCC8(CC7)CCN(C(=O)c7ccc(Cl)c(N9CCC(=O)N(C)C9=O)c7)CC8)CC6)CC5)nc4c3F)c12 [Example 17, 1-(5-(9-((4-((1-(((4-(3,8-diazabicyclo[3.2.1]octan-3-yl)-7-(8-ethynyl-7-fluoro-3-hydroxynaphthalen-1-yl)-8-fluoropyrido[4,3-d]pyrimidin-2-yl)oxy)methyl)cyclopropyl)methyl)piperazin-1-yl)methyl)-3-azaspiro[5.5]undecane-3-carbonyl)-2-chlorophenyl)-3-methyldihydropyrimidine-2,4(1H,3H)-dione] | ≤ 50 nM | ≤ 50 nM
C#Cc1c(F)ccc2cc(O)cc(-c3ncc4c(N5CC6CCC(C5)N6)nc(OCC5(CN6CCN(CCC7CCC8(CC7)CCN(C(=O)c7ccc(Cl)c(N9CCC(=O)NC9=O)c7)CC8)CC6)CC5)nc4c3F)c12 [Example 18, 1-(5-(9-(2-(4-((1-(((4-(3,8-diazabicyclo[3.2.1]octan-3-yl)-7-(8-ethynyl-7-fluoro-3-hydroxynaphthalen-1-yl)-8-fluoropyrido[4,3-d]pyrimidin-2-yl)oxy)methyl)cyclopropyl)methyl)piperazin-1-yl)ethyl)-3-azaspiro[5.5]undecane-3-carbonyl)-2-chlorophenyl)dihydropyrimidine-2,4(1H,3H)-dione] | ≤ 50 nM | ≤ 50 nM
CCc1cccc2cc(O)cc(-c3ncc4c(N5CC6CCC(C5)N6)nc(OCC5(CN6CCN(CCCC7CCN(C(=O)c8ccc(Cl)c(N9CCC(=O)NC9=O)c8)CC7)CC6)CC5)nc4c3F)c12 [Example 19, 1-(5-(4-(3-(4-((1-(((4-(3,8-diazabicyclo[3.2.1]octan-3-yl)-7-(8-ethyl-3-hydroxynaphthalen-1-yl)-8-fluoropyrido[4,3-d]pyrimidin-2-yl)oxy)methyl)cyclopropyl)methyl)piperazin-1-yl)propyl)piperidine-1-carbonyl)-2-chlorophenyl)dihydropyrimidine-2,4(1H,3H)-dione] | ≤ 50 nM | ≤ 50 nM
CCc1cccc2cc(O)cc(-c3ncc4c(N5CC6CCC(C5)N6)nc(OCC5(CN6CCN(CC7CCC8(CC7)CCN(C(=O)c7ccc(OC)c(N9CCC(=O)NC9=O)c7)CC8)CC6)CC5)nc4c3F)c12 [Example 20, 1-(5-(9-((4-((1-(((4-(3,8-diazabicyclo[3.2.1]octan-3-yl)-7-(8-ethyl-3-hydroxynaphthalen-1-yl)-8-fluoropyrido[4,3-d]pyrimidin-2-yl)oxy)methyl)cyclopropyl)methyl)piperazin-1-yl)methyl)-3-azaspiro[5.5]undecane-3-carbonyl)-2-methoxyphenyl)dihydropyrimidine-2,4(1H,3H)-dione] | ≤ 50 nM | ≤ 50 nM
C#Cc1c(F)ccc2cc(O)cc(-c3ncc4c(N5CC6CCC(C5)N6)nc(OCC5(CN6CCC(COCCC7CCN(C(=O)c8ccc(Cl)c(N9CCC(=O)NC9=O)c8)CC7)CC6)CC5)nc4c3F)c12 [Example 21, 1-(5-(4-(2-((1-((1-(((4-(3,8-diazabicyclo[3.2.1]octan-3-yl)-7-(8-ethynyl-7-fluoro-3-hydroxynaphthalen-1-yl)-8-fluoropyrido[4,3-d]pyrimidin-2-yl)oxy)methyl)cyclopropyl)methyl)piperidin-4-yl)methoxy)ethyl)piperidine-1-carbonyl)-2-chlorophenyl)dihydropyrimidine-2,4(1H,3H)-dione] | ≤ 50 nM | ≤ 50 nM
CCc1c(F)ccc2cc(O)cc(-c3ncc4c(N5CC6CCC(C5)N6)nc(OCC5(CN6CCN(CCCC7CCN(C(=O)c8ccc(Cl)c(N9CCC(=O)NC9=O)c8)CC7)CC6)CC5)nc4c3F)c12 [Example 22, 1-(5-(4-(3-(4-((1-(((4-(3,8-diazabicyclo[3.2.1]octan-3-yl)-7-(8-ethyl-7-fluoro-3-hydroxynaphthalen-1-yl)-8-fluoropyrido[4,3-d]pyrimidin-2-yl)oxy)methyl)cyclopropyl)methyl)piperazin-1-yl)propyl)piperidine-1-carbonyl)-2-chlorophenyl)dihydropyrimidine-2,4(1H,3H)-dione] | ≤ 50 nM | ≤ 50 nM
C#Cc1c(F)ccc2cc(O)cc(-c3ncc4c(N5CC6CCC(C5)N6)nc(OCC(C)(C)CN5CCN(CCCC6CCN(C(=O)c7ccc(Cl)c(N8CCC(=O)NC8=O)c7)CC6)CC5)nc4c3F)c12 [Example 23, 1-(5-(4-(3-(4-(3-((4-(3,8-diazabicyclo[3.2.1]octan-3-yl)-7-(8-ethynyl-7-fluoro-3-hydroxynaphthalen-1-yl)-8-fluoropyrido[4,3-d]pyrimidin-2-yl)oxy)-2,2-dimethylpropyl)piperazin-1-yl)propyl)piperidine-1-carbonyl)-2-chlorophenyl)dihydropyrimidine-2,4(1H,3H)-dione] | ≤ 50 nM | 100 to 500 nM
C#Cc1c(F)ccc2cc(O)cc(-c3ncc4c(N5CC6CCC(C5)N6)nc(OCC5(CN6CCN(CCCC7CCN(C(=O)c8ccc(Cl)c(N9CCC(=O)NC9=O)c8)CC7)CC6)CCC5)nc4c3F)c12 [Example 24, 1-(5-(4-(3-(4-((1-(((4-(3,8-diazabicyclo[3.2.1]octan-3-yl)-7-(8-ethynyl-7-fluoro-3-hydroxynaphthalen-1-yl)-8-fluoropyrido[4,3-d]pyrimidin-2-yl)oxy)methyl)cyclobutyl)methyl)piperazin-1-yl)propyl)piperidine-1-carbonyl)-2-chlorophenyl)dihydropyrimidine-2,4(1H,3H)-dione] | ≤ 50 nM | ≤ 50 nM
C#Cc1c(F)ccc2cc(O)cc(-c3ncc4c(N5CC6CCC(C5)N6)nc(OCC5(CN6CCN(CC7CCC8(CC7)CCN(C(=O)c7ccc(OC)c(N9CCC(=O)NC9=O)c7)CC8)CC6)CCC5)nc4c3F)c12 [Example 25, 1-(5-(9-((4-((1-(((4-(3,8-diazabicyclo[3.2.1]octan-3-yl)-7-(8-ethynyl-7-fluoro-3-hydroxynaphthalen-1-yl)-8-fluoropyrido[4,3-d]pyrimidin-2-yl)oxy)methyl)cyclobutyl)methyl)piperazin-1-yl)methyl)-3-azaspiro[5.5]undecane-3-carbonyl)-2-methoxyphenyl)dihydropyrimidine-2,4(1H,3H)-dione] | ≤ 50 nM | 100 to 500 nM
C#Cc1c(F)ccc2cc(O)cc(-c3ncc4c(N5CC6CCC(C5)N6)nc(OCC(C)(C)CN5CCN(CC6CCC7(CC6)CCN(C(=O)c6ccc(OC)c(N8CCC(=O)NC8=O)c6)CC7)CC5)nc4c3F)c12 [Example 26, 1-(5-(9-((4-(3-((4-(3,8-diazabicyclo[3.2.1]octan-3-yl)-7-(8-ethynyl-7-fluoro-3-hydroxynaphthalen-1-yl)-8-fluoropyrido[4,3-d]pyrimidin-2-yl)oxy)-2,2-dimethylpropyl)piperazin-1-yl)methyl)-3-azaspiro[5.5]undecane-3-carbonyl)-2-methoxyphenyl)dihydropyrimidine-2,4(1H,3H)-dione] | 50 to 100 nM | ≤ 50 nM
C#Cc1c(F)ccc2cc(O)cc(-c3ncc4c(N5CC6CCC(C5)N6)nc(OCC5(CN6CCN(CC7CCC8(CC7)CCN(C(=O)c7ccc(Br)c(N9CCC(=O)NC9=O)c7)CC8)CC6)CC5)nc4c3F)c12 [Example 29, 1-(5-(9-((4-((1-(((4-(3,8-diazabicyclo[3.2.1]octan-3-yl)-7-(8-ethynyl-7-fluoro-3-hydroxynaphthalen-1-yl)-8-fluoropyrido[4,3-d]pyrimidin-2-yl)oxy)methyl)cyclopropyl)methyl)piperazin-1-yl)methyl)-3-azaspiro[5.5]undecane-3-carbonyl)-2-bromophenyl)dihydropyrimidine-2,4(1H,3H)-dione] | ≤ 50 nM | ≤ 50 nM
CCc1c(F)ccc2cc(O)cc(-c3ncc4c(N5CC6CCC(C5)N6)nc(OCC5(CN6CCN(CC7CCC8(CC7)CCN(C(=O)c7ccc(Cl)c(N9CCC(=O)NC9=O)c7)CC8)CC6)CC5)nc4c3F)c12 [Example 30, 1-(5-(9-((4-((1-(((4-(3,8-diazabicyclo[3.2.1]octan-3-yl)-7-(8-ethyl-7-fluoro-3-hydroxynaphthalen-1-yl)-8-fluoropyrido[4,3-d]pyrimidin-2-yl)oxy)methyl)cyclopropyl)methyl)piperazin-1-yl)methyl)-3-azaspiro[5.5]undecane-3-carbonyl)-2-chlorophenyl)dihydropyrimidine-2,4(1H,3H)-dione] | 50 to 100 nM | ≤ 50 nM
